Several values for one entry are separate records, joined by “and”; a condition that tells them apart may be missing. Equal values may be shown once. Toxic doses and inconclusive results are not listed. Cut-off read from the data, not from the text of the source: active = T/C of 150% or more; inactive = T/C below 125%.
Tested on: L1210 leukemia ip in BDF1 mice, survival T/C
Test: NCI In Vivo Anticancer Drug Screen. Data for tumor model L1210 Leukemia (intraperitoneal) in B6D2F1 (BDF1) mice
Settings: endpoint: mean survival time, higher = longer survival
Procedure, shortened: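 Mice bearing the transplanted tumor received compound or vehicle. Survival of the treated group was divided by that of the vehicle-treated control group to give the ratio.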

[1] = dose: 100.0 mg/kg/injection, schedule: Q04DX003 (ip), vehicle: saline with Tween-80
[2] = dose: 200.0 mg/kg/injection, schedule: Q04DX003 (ip), vehicle: saline with Tween-80
[3] = dose: 400.0 mg/kg/injection, schedule: Q04DX003 (ip), vehicle: saline with Tween-80
[4] = dose: 100.0 mg/kg/injection, schedule: Q01DX009 (ip), vehicle: Klucel (hydroxypropylcellulose) (HPC)
[5] = dose: 100.0 mg/kg/injection, schedule: Q04DX003 (ip), vehicle: Klucel (hydroxypropylcellulose) (HPC)
[6] = dose: 200.0 mg/kg/injection, schedule: Q01DX009 (ip), vehicle: Klucel (hydroxypropylcellulose) (HPC)
[7] = dose: 200.0 mg/kg/injection, schedule: Q04DX003 (ip), vehicle: Klucel (hydroxypropylcellulose) (HPC)
[8] = dose: 400.0 mg/kg/injection, schedule: Q01DX009 (ip), vehicle: Klucel (hydroxypropylcellulose) (HPC)
[9] = dose: 400.0 mg/kg/injection, schedule: Q04DX003 (ip), vehicle: Klucel (hydroxypropylcellulose) (HPC)
[10] = dose: 100.0 mg/kg/injection, schedule: Q01DX001 (ip), vehicle: Klucel (hydroxypropylcellulose) (HPC)
[11] = dose: 200.0 mg/kg/injection, schedule: Q01DX001 (ip), vehicle: Klucel (hydroxypropylcellulose) (HPC)
[12] = dose: 400.0 mg/kg/injection, schedule: Q01DX001 (ip), vehicle: Klucel (hydroxypropylcellulose) (HPC)
[13] = dose: 100.0 mg/kg/injection, schedule: Q01DX009 (ip), vehicle: saline with Tween-80
[14] = dose: 200.0 mg/kg/injection, schedule: Q01DX009 (ip), vehicle: saline with Tween-80
[15] = dose: 400.0 mg/kg/injection, schedule: Q01DX009 (ip), vehicle: saline with Tween-80
[16] = dose: 100.0 mg/kg/injection, schedule: Q04DX003 (ip), vehicle: saline
[17] = dose: 200.0 mg/kg/injection, schedule: Q04DX003 (ip), vehicle: saline
[18] = dose: 400.0 mg/kg/injection, schedule: Q04DX003 (ip), vehicle: saline
[19] = dose: 100.0 mg/kg/injection, schedule: Q04DX002 (ip), vehicle: saline with Tween-80
[20] = dose: 200.0 mg/kg/injection, schedule: Q04DX002 (ip), vehicle: saline with Tween-80
[21] = dose: 400.0 mg/kg/injection, schedule: Q04DX002 (ip), vehicle: saline with Tween-80

Measured: T/C

Nc1nc(N)nc(NC(=O)CNCc2ccccc2)n1
inactive: [1] 101 % of control and 105 % of control | [2] 97 % of control and 107 % of control | [3] 97 % of control and 102 % of control

CC1(C)COC(c2ccccc2Br)=N1
inactive: [4] 107 % of control | [5] 104 % of control and 105 % of control | [6] 104 % of control | [7] 97 % of control and 105 % of control | [8] 93 % of control | [9] 93 % of control and 100 % of control

O=C(O)/C=C\Br
inactive: dose: 25.0 mg/kg/injection, schedule: Q01DX009 (ip), vehicle: Klucel (hydroxypropylcellulose) (HPC) 91 % of control | dose: 50.0 mg/kg/injection, schedule: Q01DX005 (ip), vehicle: Klucel (hydroxypropylcellulose) (HPC) 95 % of control | dose: 50.0 mg/kg/injection, schedule: Q01DX009 (ip), vehicle: Klucel (hydroxypropylcellulose) (HPC) 106 % of control | dose: 100.0 mg/kg/injection, schedule: Q01DX005 (ip), vehicle: Klucel (hydroxypropylcellulose) (HPC) 103 % of control | [4] 98 % of control

Cc1cc(C)c(Sc2ccc([N+](=O)[O-])c3ccccc23)c(C)c1
inactive: [10] 102 % of control | [5] 94 % of control | [11] 98 % of control | [7] 100 % of control | [12] 95 % of control | [9] 90 % of control

Nc1nc(-c2ccccc2)c(CCCO)c(=O)[nH]1
inactive: [10] 102 % of control | [11] 102 % of control | [12] 98 % of control

CC(=O)OC1OC(C[Se][As](C)C)C(OC(C)=O)C(OC(C)=O)C1OC(C)=O (stereo not drawn)
inactive: [5] 104 % of control | [7] 98 % of control | [9] 95 % of control

O=C(O)C1CC1Oc1ccccc1 (stereo not drawn)
inactive: [13] 96 % of control | [1] 110 % of control | [14] 92 % of control | [2] 108 % of control | [15] 87 % of control | [3] 106 % of control

O=C(c1ccccc1)N(CCCl)C(=O)N(CCCl)C(=O)c1ccccc1
inactive: dose: 75.0 mg/kg/injection, schedule: Q01DX001 (ip), vehicle: carboxymethylcellulose (CMC) 104 % of control | dose: 75.0 mg/kg/injection, schedule: Q01DX009 (ip), vehicle: saline with Tween-80 95 % of control | dose: 75.0 mg/kg/injection, schedule: Q04DX003 (ip), vehicle: saline with Tween-80 91 % of control | dose: 150.0 mg/kg/injection, schedule: Q01DX001 (ip), vehicle: carboxymethylcellulose (CMC) 101 % of control | dose: 150.0 mg/kg/injection, schedule: Q01DX009 (ip), vehicle: saline with Tween-80 98 % of control | dose: 150.0 mg/kg/injection, schedule: Q04DX003 (ip), vehicle: saline with Tween-80 92 % of control | dose: 300.0 mg/kg/injection, schedule: Q01DX001 (ip), vehicle: carboxymethylcellulose (CMC) 103 % of control | dose: 300.0 mg/kg/injection, schedule: Q04DX003 (ip), vehicle: saline with Tween-80 89 % of control

CCCN(CCC)CC(O)c1ccc2cccc3c2c1CC3 (stereo not drawn)
inactive: dose: 75.0 mg/kg/injection, schedule: Q01DX001 (ip), vehicle: saline 104 % of control | dose: 150.0 mg/kg/injection, schedule: Q01DX001 (ip), vehicle: saline 98 % of control | dose: 300.0 mg/kg/injection, schedule: Q01DX001 (ip), vehicle: saline 95 % of control

Cc1cc2ncn(CC(=O)O)c2cc1C
inactive: [16] 101 % of control | [17] 95 % of control | [18] 97 % of control

CCCCSP(SCCCC)N1CCCCC1
inactive: [16] 102 % of control | [17] 98 % of control

Cc1cccc(C)c1NC(=O)Nc1ccc(S(N)(=O)=O)cc1
inactive: [4] 100 % of control | [5] 101 % of control | [6] 95 % of control and 97 % of control | [7] 94 % of control | [8] 100 % of control and 88 % of control | [9] 92 % of control

Oc1cccc2oc(=S)[nH]c12
inactive: dose: 25.0 mg/kg/injection, schedule: Q04DX003 (ip), vehicle: Klucel (hydroxypropylcellulose) (HPC) 106 % of control | dose: 50.0 mg/kg/injection, schedule: Q04DX003 (ip), vehicle: Klucel (hydroxypropylcellulose) (HPC) 92 % of control | [5] 103 % of control | [1] 95 % of control and 100 % of control | [2] 110 % of control

CC(=O)OCC1OC(SSCc2ccccc2)C(OC(C)=O)C(OC(C)=O)C1OC(C)=O (stereo not drawn)
inactive: dose: 100.0 mg/kg/injection, schedule: Q01DX001 (ip), vehicle: saline 96 % of control | dose: 200.0 mg/kg/injection, schedule: Q01DX001 (ip), vehicle: saline 93 % of control | dose: 400.0 mg/kg/injection, schedule: Q01DX001 (ip), vehicle: saline 93 % of control

CC(C)=CN1CC2CCCC(CC2)C1
inactive: [5] 98 % of control | [7] 101 % of control

CC(Br)C(=O)Nc1ccccc1 (stereo not drawn)
inactive: [13] 93 % of control | [1] 101 % of control | [14] 103 % of control | [2] 95 % of control | [15] 90 % of control | [3] 95 % of control

[Br][Nd]([Br])[Br]
inactive: dose: 50.0 mg/kg/injection, schedule: Q04DX003 (ip), vehicle: saline 96 % of control | [16] 91 % of control | [17] 97 % of control | [18] 86 % of control

Cc1ccc(S(=O)(=O)N/N=C\C(O)C(O)C(O)CO)cc1 (stereo not drawn)
inactive: [19] 97 % of control | [20] 94 % of control | [21] 97 % of control

CNC(=O)NS(=O)(=O)c1ccc(Cl)cc1
inactive: [19] 97 % of control and 102 % of control | [1] 103 % of control and 105 % of control | [20] 98 % of control and 91 % of control | [2] 94 % of control and 101 % of control | [21] 97 % of control and 98 % of control | [3] 115 % of control and 90 % of control
